Assays:
Type in all cases: in vivo
[1] = system: barnyardgrass (Echinochloa crus-galli); assay: Test A preemergence; details: Echinochloa crus-galli, pre-emergence, 240 h, 0 to 100 scale where 0 is no effect and 100 is complete control, read-out: Barnyardgrass plant response rating; for pest or weed control at 31 g/ha: 31 g ai/ha, Preemergence; for pest or weed control at 125 g/ha: 125 g ai/ha, preemergence, visual injury rating, approximately 10 d
Summary of the method: (§1)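 Compounds were formulated in a non-phytotoxic solvent mixture with surfactant and applied as a preemergence directed soil spray after seeding, or sprayed postemergence over plants 2 to 10 cm tall at the one- to two-leaf stage. Evaluation after about 10 d compared treated with untreated controls, using a scale from 0 (no effect) to 100 (complete control).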

Kochia (Kochia scoparia) [2] = assay: Test A preemergence; details: Bassia scoparia, pre-emergence, 240 h, 0 to 100 scale where 0 is no effect and 100 is complete control, read-out: Kochia plant response rating; for pest or weed control at 31 g/ha: 31 g ai/ha, Preemergence; for pest or weed control at 125 g/ha: 125 g ai/ha, preemergence, visual injury rating, approximately 10 d
Summary of the method: as §1

[3] = system: ryegrass, Italian (Italian ryegrass, Lolium multiflorum); assay: Test A preemergence; details: Lolium multiflorum, pre-emergence, 240 h, 0 to 100 scale where 0 is no effect and 100 is complete control, read-out: Ryegrass, Italian plant response rating; for pest or weed control at 31 g/ha: 31 g ai/ha, Preemergence; for pest or weed control at 125 g/ha: 125 g ai/ha, preemergence, visual injury rating, approximately 10 d
Summary of the method: as §1

[4] = system: ragweed (common ragweed, Ambrosia elatior); assay: Test A preemergence; details: Ambrosia artemisiifolia, pre-emergence, 240 h, 0 to 100 scale where 0 is no effect and 100 is complete control, read-out: Ragweed plant response rating; for pest or weed control at 31 g/ha: 31 g ai/ha, Preemergence; for pest or weed control at 125 g/ha: 125 g ai/ha, preemergence, visual injury rating, approximately 10 d
Summary of the method: as §1

[5] = system: giant foxtail (Setaria faberii); assay: Test A preemergence; details: Setaria faberi, pre-emergence, 240 h, 0 to 100 scale where 0 is no effect and 100 is complete control, read-out: Foxtail, Giant plant response rating; for pest or weed control at 31 g/ha: 31 g ai/ha, Preemergence; for pest or weed control at 125 g/ha: 125 g ai/ha, preemergence, visual injury rating, approximately 10 d
Summary of the method: as §1

[6] = system: pigweed (Amaranthus retroflexus); assay: Test A preemergence; details: Amaranthus retroflexus, pre-emergence, 240 h, 0 to 100 scale where 0 is no effect and 100 is complete control, read-out: Pigweed plant response rating; for pest or weed control at 31 g/ha: 31 g ai/ha, Preemergence; for pest or weed control at 125 g/ha: 125 g ai/ha, preemergence, visual injury rating, approximately 10 d
[7] = system: barnyardgrass (Echinochloa crus-galli); assay: Test A postemergence; details: Echinochloa crus-galli, post-emergence, 240 h, Postemergence; for pest or weed control at 125 g/ha: 125 g ai/ha, visual rating about 10 d after treatment, read-out: Barnyardgrass plant response rating (0 to 100 scale, 0 no effect, 100 complete control); for pest or weed control at 31 g/ha: 31 g ai/ha, 0 is no effect, 100 is complete control, read-out: Barnyardgrass plant response rating (0 to 100 scale)
Summary of the method: as §1

[8] = system: wheat (Triticum aestivum); assay: Test A postemergence; details: Triticum aestivum, post-emergence, 240 h, Postemergence, read-out: Wheat plant response rating (0 to 100 scale); for plant injury at 125 g/ha: 125 g ai/ha, visual rating about 10 d after treatment; for plant injury at 31 g/ha: 31 g ai/ha, 0 is no effect, 100 is complete control
Summary of the method: as §1

Kochia (Kochia scoparia) [9] = assay: Test A postemergence; details: Bassia scoparia, post-emergence, 240 h, Postemergence, read-out: Kochia plant response rating (0 to 100 scale); for pest or weed control at 125 g/ha: 125 g ai/ha, visual rating about 10 d after treatment; for pest or weed control at 31 g/ha: 31 g ai/ha, 0 is no effect, 100 is complete control
Summary of the method: as §1

[10] = system: ryegrass, Italian (Italian ryegrass, Lolium multiflorum); assay: Test A postemergence; details: Lolium multiflorum, post-emergence, 240 h, Postemergence, read-out: Ryegrass, Italian plant response rating (0 to 100 scale); for pest or weed control at 125 g/ha: 125 g ai/ha, visual rating about 10 d after treatment; for pest or weed control at 31 g/ha: 31 g ai/ha, 0 is no effect, 100 is complete control
Summary of the method: as §1

[11] = system: Galium (catchweed bedstraw, Galium aparine); assay: Test A postemergence; details: Galium, post-emergence, 240 h, Postemergence, read-out: Galium plant response rating (0 to 100 scale); for pest or weed control at 125 g/ha: 125 g ai/ha, visual rating about 10 d after treatment; for pest or weed control at 31 g/ha: 31 g ai/ha, 0 is no effect, 100 is complete control
Summary of the method: as §1

[12] = system: ragweed (common ragweed, Ambrosia elatior); assay: Test A postemergence; details: Ambrosia artemisiifolia, post-emergence, 240 h, Postemergence, read-out: Ragweed plant response rating (0 to 100 scale); for pest or weed control at 125 g/ha: 125 g ai/ha, visual rating about 10 d after treatment; for pest or weed control at 31 g/ha: 31 g ai/ha, 0 is no effect, 100 is complete control
Summary of the method: as §1

[13] = system: giant foxtail (Setaria faberii); assay: Test A postemergence; details: Setaria faberi, post-emergence, 240 h, Postemergence, read-out: Foxtail, Giant plant response rating (0 to 100 scale); for pest or weed control at 125 g/ha: 125 g ai/ha, visual rating about 10 d after treatment; for pest or weed control at 31 g/ha: 31 g ai/ha, 0 is no effect, 100 is complete control
Summary of the method: as §1

[14] = system: blackgrass (Alopecurus myosuroides); assay: Test A postemergence; details: Alopecurus myosuroides, post-emergence, 240 h, Postemergence, read-out: Blackgrass plant response rating (0 to 100 scale); for pest or weed control at 125 g/ha: 125 g ai/ha, visual rating about 10 d after treatment; for pest or weed control at 31 g/ha: 31 g ai/ha, 0 is no effect, 100 is complete control
Summary of the method: as §1

corn (Zea mays) = assay: Test A postemergence; details: Zea mays, post-emergence, 240 h, Postemergence, read-out: Corn plant response rating (0 to 100 scale); for plant injury at 125 g/ha: 125 g ai/ha, visual rating about 10 d after treatment; for plant injury at 31 g/ha: 31 g ai/ha, 0 is no effect, 100 is complete control
Summary of the method: as §1

[15] = system: pigweed (Amaranthus retroflexus); assay: Test A postemergence; details: Amaranthus retroflexus, post-emergence, 240 h, Postemergence, read-out: Pigweed plant response rating (0 to 100 scale); for pest or weed control at 125 g/ha: 125 g ai/ha, visual rating about 10 d after treatment; for pest or weed control at 31 g/ha: 31 g ai/ha, 0 is no effect, 100 is complete control
Summary of the method: as §1

[16] = system: barnyardgrass (Echinochloa crus-galli); assay: Test B flooded paddy test; details: Echinochloa crus-galli, 250 g ai/ha, Flood; 0 to 100 scale where 0 is no effect and 100 is complete control; read-out: Barnyardgrass plant response rating
Summary of the method: (§2)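 Flooding to 3 cm over soil accompanied treatment, which consisted of adding compound to the standing water around 2-leaf plants; depth was then maintained. Visual assessment versus controls followed at 13 to 15 d (scale 0–100, 0 meaning no effect).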

rice (Oryra sativa) = assay: Test B flooded paddy test; details: Oryza sativa, 250 g ai/ha, Flood; 0 to 100 scale where 0 is no effect and 100 is complete control; read-out: Rice plant response rating
Summary of the method: as §2

[17] = system: ducksalad (Heteranthera limosa); assay: Test B flooded paddy test; details: Heteranthera limosa, 250 g ai/ha, Flood; 0 to 100 scale where 0 is no effect and 100 is complete control; read-out: Ducksalad plant response rating
Summary of the method: as §2

[18] = system: sedge, umbrella (small-flower umbrella sedge, Cyperus difformis); assay: Test B flooded paddy test; details: Cyperus difformis, 250 g ai/ha, Flood; 0 to 100 scale where 0 is no effect and 100 is complete control; read-out: Sedge, Umbrella plant response rating
Summary of the method: as §2

SMILES: CN1C[C@H](c2csc3c2CCOC3)[C@@H](C(=O)Nc2ccccc2F)C1=O [Compound 1267]
- pest or weed control at 31 g/ha [1]: 90%
- pest or weed control at 125 g/ha [1]: 90%
- pest or weed control at 31 g/ha (Kochia (Kochia scoparia) [2]): 0%
- pest or weed control at 125 g/ha (Kochia (Kochia scoparia) [2]): 0%
- pest or weed control at 31 g/ha [3]: 0%
- pest or weed control at 125 g/ha [3]: 0%
- pest or weed control at 31 g/ha [4]: 0%
- pest or weed control at 125 g/ha [4]: 0%
- pest or weed control at 31 g/ha [5]: 90%
- pest or weed control at 125 g/ha [5]: 90%
- pest or weed control at 31 g/ha [6]: 0%
- pest or weed control at 125 g/ha [6]: 0%
- pest or weed control at 125 g/ha [7]: 90%
- pest or weed control at 31 g/ha [7]: 60%
- plant injury at 125 g/ha [8]: 0%
- plant injury at 31 g/ha [8]: 0%
- pest or weed control at 125 g/ha (Kochia (Kochia scoparia) [9]): 0%
- pest or weed control at 31 g/ha (Kochia (Kochia scoparia) [9]): 0%
- pest or weed control at 125 g/ha [10]: 0%
- pest or weed control at 31 g/ha [10]: 0%
- pest or weed control at 125 g/ha [11]: 0%
- pest or weed control at 31 g/ha [11]: 0%
- pest or weed control at 125 g/ha [12]: 0%
- pest or weed control at 31 g/ha [12]: 0%
- pest or weed control at 125 g/ha [13]: 90%
- pest or weed control at 31 g/ha [13]: 60%
- pest or weed control at 125 g/ha [14]: 0%
- pest or weed control at 31 g/ha [14]: 0%
- plant injury at 125 g/ha (corn (Zea mays)): 0%
- plant injury at 31 g/ha (corn (Zea mays)): 0%
- pest or weed control at 125 g/ha [15]: 0%
- pest or weed control at 31 g/ha [15]: 0%
- pest or weed control at 250 g/ha [16]: 90%
- pest or weed control at 250 g/ha (rice (Oryra sativa)): 0%
- pest or weed control at 250 g/ha [17]: 90%
- pest or weed control at 250 g/ha [18]: 0%

SMILES: CN1C[C@H](c2cc(Cl)cc(Cl)c2)[C@@H](C(=O)Nc2cccc(F)c2F)C1=O [Compound 1270]
- pest or weed control at 31 g/ha [1]: 70%
- pest or weed control at 125 g/ha [1]: 90%
- pest or weed control at 31 g/ha (Kochia (Kochia scoparia) [2]): 40%
- pest or weed control at 125 g/ha (Kochia (Kochia scoparia) [2]): 60%
- pest or weed control at 31 g/ha [3]: 0%
- pest or weed control at 125 g/ha [3]: 40%
- pest or weed control at 31 g/ha [4]: 0%
- pest or weed control at 125 g/ha [4]: 30%
- pest or weed control at 31 g/ha [5]: 90%
- pest or weed control at 125 g/ha [5]: 90%
- pest or weed control at 31 g/ha [6]: 0%
- pest or weed control at 125 g/ha [6]: 40%
- pest or weed control at 125 g/ha [7]: 90%
- pest or weed control at 31 g/ha [7]: 90%
- plant injury at 125 g/ha [8]: 40%
- plant injury at 31 g/ha [8]: 0%
- pest or weed control at 125 g/ha (Kochia (Kochia scoparia) [9]): 60%
- pest or weed control at 31 g/ha (Kochia (Kochia scoparia) [9]): 0%
- pest or weed control at 125 g/ha [10]: 30%
- pest or weed control at 31 g/ha [10]: 0%
- pest or weed control at 125 g/ha [11]: 70%
- pest or weed control at 31 g/ha [11]: 60%
- pest or weed control at 125 g/ha [12]: 0%
- pest or weed control at 31 g/ha [12]: 0%
- pest or weed control at 125 g/ha [13]: 80%
- pest or weed control at 31 g/ha [13]: 60%
- pest or weed control at 125 g/ha [14]: 40%
- pest or weed control at 31 g/ha [14]: 0%
- plant injury at 125 g/ha (corn (Zea mays)): 20%
- plant injury at 31 g/ha (corn (Zea mays)): 0%
- pest or weed control at 125 g/ha [15]: 60%
- pest or weed control at 31 g/ha [15]: 40%
- pest or weed control at 250 g/ha [16]: 60%
- pest or weed control at 250 g/ha (rice (Oryra sativa)): 15%
- pest or weed control at 250 g/ha [17]: 80%
- pest or weed control at 250 g/ha [18]: 0%
